According to patent publication US20020095001A1, “Methods and compositions for topical treatment of damaged tissue using reactive oxygen metabolite production or release inhibitors” (priority 1999, published 2002):

How the values were obtained:
[1] = test system: photodermatitis (second degree sunburn); details: aloe vera based gel such as SOOTH-A-CAINE containing 0.006% by weight
Source text: The ROM production and release inhibitory compound serotonin is used in a gel to treat a subject presenting photodermatitis (second degree sunburn) and attendant blister formation. The subject has blister formation as well as deep reddening of the epidermis on the back.

[2] = test system: pharyngotosillitis, a herpetic infection of the pharyngeal region; experiment: Example 5: pharyngotonsillitis treated with a mouthwash; type: in vivo, human; details: mouthwash 0.05% by weight, five applications per day for seven days
Procedure: A subject suffering from pharyngotosillitis, a herpetic infection of the pharyngeal region is treated with a mouthwash containing the ROM inhibitory compound NADPH oxidase inhibitor […] in a concentration of 0.05% by weight of formulation. The treatment consists of five mouthwash applications per day for a period of seven days. The administration of […] was effective in treating the pharyngotosillitis of the subject.

[3] = target: T1, NADPH oxidase (Homo sapiens, UniProt P04839); details: membrane bound oxidase of phagocytes, substrate preference; generally accepted; cited from earlier work
T1 construct: host or cells: phagocytes / neutrophils (background description)

[4] = test system: keratoconjunctivitis or a corneal herpes infection; details: ophthalmic solution 0.09% by weight with ZOVIRAX every three hours, plus solution without ZOVIRAX hourly
Procedure: A subject presenting keratoconjunctivitis or a corneal herpes infection is treated with the compositions of the present invention using an ophthalmic solution of histamine dihydrochloride at 0.09% by weight of formulation. Commercially available ophthalmic solutions are well known in the art. Additionally, the ophthalmic solution contains ZOVIRAX in an effective concentration. Application of the solution to the eye occurs every three hours. A solution containing only the ROM production and release inhibiting compound is given hourly to ease the discomfort of the subject.

[5] = test system: herpes zoster or shingles lesions; details: ointment approx. 0.004% by weight four times a day plus subcutaneous histamine 10 μg/kg once per week
Procedure: A subject presenting herpes zoster or shingles lesions is treated with the compounds of the present invention in the form of an ointment. […] The ointment is administered topically to shingles lesions four times a day until the lesions completely heal. A subcutaneous injection of histamine at a concentration of 10 μg/kg of the subject is also administered. The injection is given once per week.

[6] = test system: psoriasis of the scalp
Procedure: A subject suffering from psoriasis of the scalp is treated with a shampoo containing approximately 0.008% by weight of histamine dihydrochloride. The subject undergoes UVB treatment in accordance with a protocol well known to those of ordinary skill in the art. In addition, the subject washes their hair once per day with the shampoo containing the ROM production and release inhibitory compound histamine.

[7] = test system: eczema; details: soap approx. 0.1% by weight once daily and lotion approx. 0.0055% by weight up to five times a day
Procedure: A subject presenting eczema is treated with a lotion and soap containing the ROM production and release inhibitory compound histamine dihydrochloride. The soap contains histamine in a concentration of approximately 0.1% by weight while the lotion contains histamine in a concentration of approximately 0.0055% by weight. The subject bathes with the soap once daily. The affected area is lathered well with the soap, rinsed, and the procedure is repeated. Following the bath, the lotion is applied up to five times throughout the day to the affected area.

[8] = test system: chemical burn injuries; details: water-based gel 0.007% by weight; every 10 minutes first hour, every 30 minutes next three hours, then as needed
Procedure: The compositions of the present invention are administered topically to a subject presenting chemical burn injuries. A water-based gel preparation containing of 0.007% by weight of the formulation of histamine dihydrochloride was administered to the subject's burn injuries. The treatment consisted of topical application of the gel to the burn site every 10 minutes for the first hour, then every 30 minutes for the next three hours. Topical applications thereafter are applied as needed by the subject in response to pain.

[9] = test system: incision of the skin; details: formulation 0.0045% by weight with vitamin A 2000 IU, vitamin E 5000 IU and a topical antibiotic, twice a day
Procedure: The compositions of the present invention are administered topically to a subject presenting an incision of the skin. A formulation containing histamine dihydrochloride in a concentration of 0.0045% by weight of the formulation, vitamin A at 2000 IU, vitamin E at 5000 IU, and a topical antibiotic is applied to the wound following proper wound cleansing. Subsequent administration of the formulation occurs twice a day and with each change of wound dressing.

[10] = test system: chemical peel treated skin; details: solution 0.008% by weight, soaking five times daily after chemical peel
Source text: The solution is applied by soaking the treated five times daily to the treated area.

[11] = test system: laser facial resurfacing treated skin; details: bandage with sterile solution 0.008% by weight five times daily, plus sunscreen 0.008% by weight
Source text: The bandage containing the sterile solution of histamine dihydrochloride is applied five times daily to the treated area. A sunscreen containing 0.008% by weight of histamine dihydrochloride is also applied before the subject is to be exposed to sunlight.

[12] = test system: periodontal disease; details: mouthwash and toothpaste, each 0.008% by weight, three times daily
Procedure: A subject presenting periodontal disease is treated with a mouthwash and toothpaste, each containing 0.008% by weight of histamine dihydrochloride. The subject brushes their teeth three times daily with the toothpaste for ten minutes. Following this cleansing, the subject washes their mouth with the mouthwash, rinses with water, and repeats. The treatment continues until the health of the periodontal tissue improves.

[13] = test system: herpes labialis; details: cream with 0.08% by weight, topical four to five times a day; compared to control cream group
Source text: Treatment of the subjects consists of the topical application of the medication four to five times a day at the lesion site.

[14] = test system: herpes labialis; details: cream 0.08% by weight five times a day together with ZOVIRAX; compared to ZOVIRAX alone
Procedure: The ability of the ROM production and release inhibition compounds of the present invention to increase the effectiveness of 9-(2-Hydroxyethoxymethyl)guanine, ZOVIRAX, (GlaxoWellcome) is evaluated in two groups of 10 subjects each. No subjects are suffering from active lesions at the initiation of the study. Group I subjects receive ZOVIRAX according to the dosage given by the manufacturer. […] Application of the cream continues during vesicle formation and until the vesicles have completely healed. Subjects in both groups are instructed to topically apply the product five times a day at the lesion site.
Subjects participating in the study are instructed to monitor the size and duration of the lesions during the herpetic episode.

[15] = test system: varicella-zoster virus (chicken pox) infection; details: child; paste 0.02% by weight five times per day and soap 0.1% by weight during bathing
Procedure: A child presenting the symptoms of chicken pox is treated with the compounds of the present invention. In this example, two products are used to treat the subject. […] The paste is applied five times per day until the vesicles have completely healed.

[16] = test system: herpes genitalis; details: 0.07% by weight foam (vaginal) and cream (external), three times a day for five days
Procedure: Using an applicator, the foam is injected into the vaginal space to treat herpetic lesions therein. The cream is applied topically to external lesions. The cream and foam are applied three times a day for a period of five days.

[17] = test system: herpes labialis; details: 0.07% by weight lipstick, three times a day for five days
Source text: The treatment consists of topical application three times a day for a period of five days.

[18] = test system: thermal burn injuries; experiment: Example 15: thermal burn injuries treated with a water-based gel; type: in vivo, human; details: water-based gel 0.007% by weight; every 10 minutes first hour, every 30 minutes next three hours, then as needed
Procedure: The compositions of the present invention are administered topically to a subject presenting thermal burn injuries. A water-based gel preparation containing of 0.007% by weight of the formulation of serotonin was administered to the subject's burn injuries. The treatment consisted of topical application of the gel to the burn site every 10 minutes for the first hour, then every 30 minutes for the next three hours. Topical applications thereafter are applied as needed by the subject in response to pain.

Compound: NCCc1c[nH]cn1 [histamine]
- blistering and amount of skin sloughed off as a result of the irradiation [1]: decrease in blistering and the amount of skin sloughed off
- discomfort in the subject [1]: reduction of discomfort

Compound: c1ccc2c(c1)[I+]c1ccccc1-2 [diphenlyeneiodonium]
- effectiveness in treating the pharyngotosillitis [2]: effective

Compound: NC(=O)C1=CN([C@@H]2O[C@H](COP(=O)(O)OP(=O)(O)OC[C@H]3O[C@@H](n4cnc5c(N)ncnc54)[C@H](O)[C@@H]3O)[C@@H](O)[C@H]2O)C=CC1 [NADH]
- Km [3]: 450 µM

Compound: Cl.Cl.NCCc1c[nH]cn1 [histamine dihydrochloride]
- damage caused by the viral outbreak [4]: reduces
- discomfort of the patient [4]: reduces the discomfort of the patient
- time period of viral activity [4]: reduces the time period of viral activity
- time required for the healing of the herpetic lesions [5]: reduces the time required for the healing
- rate of reduction in symptoms ([6]; shampoo approx. 0.008% by weight once per day with UVB, compared to UVB treatment alone): reduction in symptoms at a greater rate
- irritation of the affected area ([6]; shampoo approx. 0.008% by weight once per day, with UVB treatment): reduces the irritation of the affected area
- general condition of the skin in the affected area [7]: increase in the general condition of the skin
- symptoms of eczema [7]: decrease in the symptoms
- discomfort of the subject [8]: reduces the discomfort
- healing of the burn injuries [8]: promotes healing
- healing of the incision [9]: promotes healing of the incision
- scar formation [9]: reduces scar formation
- rate of healing [10]: rate of healing is increased
- rate of healing [11]: rate of healing is increased
- rate of healing [12]: rate of healing is increased
- healing time of herpetic lesions [13]: decrease in healing time
- size of the herpetic lesions forming during the outbreak period [14]: decrease in the size of the herpetic lesions
- healing of vesicles [15]: causes the vesicles to heal rapidly
- level of discomfort experienced by the subject [15]: decreases the level of discomfort

Compound: histamine diphosphate
- healing time of the ruptured herpetic vesicles [16]: reduced the healing time
- healing time of the ruptured herpetic vesicles [17]: reduced the healing time

Compound: NCCc1c[nH]c2ccc(O)cc12 [serotonin]
- discomfort of the subject [18]: reduces the discomfort
- healing of the burn injuries [18]: promotes healing

Compound: NC(=O)C1=CN([C@@H]2O[C@H](COP(=O)(O)OP(=O)(O)OC[C@H]3O[C@@H](n4cnc5c(N)ncnc54)[C@H](OP(=O)(O)O)[C@@H]3O)[C@@H](O)[C@H]2O)C=CC1 [NADPH]
- Km [3]: 45 µM
